Patent US6737383B1, “Herbicidal oxadiazolidines” (priority 1999, dated 2004)

Legend:
rape = experiment: Test B pre/postemergence rape; format: in vivo, Brassica napus; conditions: for Rape plant response rating: scale of 0 to 10 where 0 is no effect and 10 is complete control
How it was run: (§1)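 Response is a visual 0-to-10 score relative to untreated plants, where 0 means no effect and 10 means complete control, taken twelve to sixteen days after application. Treatments went onto soil at planting and onto foliage of 1- to 4-leaf plants, using a surfactant-containing non-phytotoxic solvent.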

bedstraw = experiment: Test B pre/postemergence bedstraw; format: in vivo, Galium aparine
How it was run: as §1

duck salad = experiment: Test B flood test duck salad; format: in vivo, Heteranthera limosa
How it was run: (§2)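 Flood test on plants grown to the 2-leaf stage; treated plants kept in greenhouse twelve to sixteen days, then visually rated against controls on a 0 (no effect) to 10 (complete control) scale.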

wild oat = experiment: Test B pre/postemergence wild oat; format: in vivo, Avena fatua; conditions: for Wild oats plant response rating: scale of 0 to 10 where 0 is no effect and 10 is complete control
How it was run: as §1

purple nutsedge = experiment: Test B pre/postemergence purple nutsedge; format: in vivo, Cyperus rotundus; conditions: for Nutsedge plant response rating: scale of 0 to 10 where 0 is no effect and 10 is complete control
How it was run: as §1

pigweed = experiment: Test B pre/postemergence pigweed; format: in vivo, Amaranthus retroflexus; conditions: for Redroot pigweed plant response rating: scale of 0 to 10 where 0 is no effect and 10 is complete control
How it was run: as §1

velvetleaf = experiment: Test B pre/postemergence velvetleaf; format: in vivo, Abutilon theophrasti; conditions: for Velvetleaf plant response rating: scale of 0 to 10 where 0 is no effect and 10 is complete control
How it was run: as §1

soybean = experiment: Test B pre/postemergence soybean; format: in vivo, Glycine max; conditions: for Soybean plant response rating: scale of 0 to 10 where 0 is no effect and 10 is complete control
How it was run: as §1

cocklebur = experiment: Test B pre/postemergence cocklebur; format: in vivo, Xanthium strumarium; conditions: for Cocklebur plant response rating: scale of 0 to 10 where 0 is no effect and 10 is complete control
How it was run: as §1

corn = experiment: Test B pre/postemergence corn; format: in vivo, Zea mays; conditions: for Corn plant response rating: scale of 0 to 10 where 0 is no effect and 10 is complete control
How it was run: as §1

crabgrass = experiment: Test B pre/postemergence crabgrass; format: in vivo, Digitaria sanguinalis; conditions: for Crabgrass plant response rating: scale of 0 to 10 where 0 is no effect and 10 is complete control
How it was run: as §1

morningglory = experiment: Test B pre/postemergence morningglory; format: in vivo, Ipomoea hederacea; conditions: for Morningglory plant response rating: scale of 0 to 10 where 0 is no effect and 10 is complete control
How it was run: as §1

giant foxtail = experiment: Test B pre/postemergence giant foxtail; format: in vivo, Setaria faberii; conditions: for Giant foxtail plant response rating: scale of 0 to 10 where 0 is no effect and 10 is complete control
How it was run: as §1

smallflower flatsedge = experiment: Test B flood test smallflower flatsedge; format: in vivo, Cyperus difformis
How it was run: as §2

wheat = experiment: Test B pre/postemergence wheat; format: in vivo, Triticum aestivum; conditions: for Wheat plant response rating: scale of 0 to 10 where 0 is no effect and 10 is complete control
How it was run: as §1

rice = experiment: Test B flood test rice; format: in vivo, Oryza sativa
How it was run: as §2

[1] = Postemergence, Rate 125 g/ha, scale 0 to 10, 0 is no effect, 10 is complete control
[2] = Postemergence, Rate 250 g/ha, scale 0 to 10, 0 is no effect, 10 is complete control
[3] = Preemergence, Rate 62 g/ha, scale 0 to 10 (0 no effect, 10 complete control)
[4] = Rate 500 g/ha, Postemergence, scale 0 to 10, 0 no effect, 10 complete control
[5] = Rate 62 g/ha, flood test species, Pre-emergence, visual evaluation after twelve to sixteen days
[6] = Rate 125 g/ha, under heading Pre-emergence, flood test species, visual evaluation after twelve to sixteen days
[7] = Rate 250 g/ha, Pre-emergence, flood-test species, scale 0 to 10, 0 is no effect, 10 is complete control
[8] = Rate 500 g/ha, Pre-emergence, flood test species, scale 0 to 10 (0 no effect, 10 complete control)

Structure (SMILES): CC(C)N(C(=O)n1oc(=O)n(N2CCOCC2)c1=O)c1ccc(F)cc1 [Compound 385]
- Plant response rating, Rape (rape; [1]): 0
- Plant response rating, Rape (rape; [2]): 0
- Plant response rating, Rape (rape; [3]): 0
- Rape plant response rating (0 to 10 scale) (rape; Preemergence, Rate 125 g/ha): 0
- Rape plant response rating (rape; Preemergence, Rate 250 g/ha): 0
- Rape plant response rating (rape; Preemergence, Rate 500 g/ha): 4
- Rape plant response rating (rape; Rate 62 g/ha, Postemergence): 0
- Plant response rating, Rape (rape; [4]): 0
- Plant response rating, Bedstraw (bedstraw; [2]): 0
- Plant response rating, Bedstraw (bedstraw; [3]): 0
- Plant response rating, Bedstraw (bedstraw; [4]): 3
- Plant response rating, Ducksalad (0 to 10 scale, 0 is no effect, 10 is complete control) (duck salad; [5]): 0
- Ducksalad plant response rating (0 to 10 scale, 0 is no effect, 10 is complete control) (duck salad; [6]): 0
- Ducksalad plant response rating (duck salad; [7]): 0
- Ducksalad plant response rating (duck salad; [8]): 0
- Plant response rating, Wild oats (wild oat; [1]): 0
- Plant response rating, Wild oats (wild oat; [2]): 2
- Plant response rating, Wild oats (wild oat; [3]): 0
- Wild oats plant response rating (0 to 10 scale) (wild oat; Preemergence, Rate 125 g/ha): 2
- Wild oats plant response rating (wild oat; Preemergence, Rate 250 g/ha): 7
- Wild oats plant response rating (wild oat; Preemergence, Rate 500 g/ha): 10
- Wild oats plant response rating (wild oat; Rate 62 g/ha, Postemergence): 0
- Plant response rating, Wild oats (wild oat; [4]): 3
- Plant response rating, Nutsedge (purple nutsedge; [1]): 0
- Plant response rating, Nutsedge (purple nutsedge; [2]): 0
- Plant response rating, Nutsedge (purple nutsedge; [3]): 0
- Nutsedge plant response rating (0 to 10 scale) (purple nutsedge; Preemergence, Rate 125 g/ha): 0
- Nutsedge plant response rating (purple nutsedge; Preemergence, Rate 250 g/ha): 0
- Nutsedge plant response rating (purple nutsedge; Preemergence, Rate 500 g/ha): 0
- Nutsedge plant response rating (purple nutsedge; Rate 62 g/ha, Postemergence): 0
- Plant response rating, Nutsedge (purple nutsedge; [4]): 0
- Plant response rating, Redroot pigweed (pigweed; [1]): 0
- Plant response rating, Redroot pigweed (pigweed; [2]): 0
- Plant response rating, Redroot pigweed (pigweed; [3]): 2
- Redroot pigweed plant response rating (0 to 10 scale) (pigweed; Preemergence, Rate 125 g/ha): 7
- Redroot pigweed plant response rating (pigweed; Preemergence, Rate 250 g/ha): 7
- Redroot pigweed plant response rating (pigweed; Preemergence, Rate 500 g/ha): 10
- Redroot pigweed plant response rating (pigweed; Rate 62 g/ha, Postemergence): 0
- Plant response rating, Redroot pigweed (pigweed; [4]): 0
- Plant response rating, Velvetleaf (velvetleaf; [1]): 0
- Plant response rating, Velvetleaf (velvetleaf; [2]): 0
- Plant response rating, Velvetleaf (velvetleaf; [3]): 0
- Velvetleaf plant response rating (0 to 10 scale) (velvetleaf; Preemergence, Rate 125 g/ha): 0
- Velvetleaf plant response rating (velvetleaf; Preemergence, Rate 250 g/ha): 3
- Velvetleaf plant response rating (velvetleaf; Preemergence, Rate 500 g/ha): 3
- Velvetleaf plant response rating (velvetleaf; Rate 62 g/ha, Postemergence): 0
- Plant response rating, Velvetleaf (velvetleaf; [4]): 0
- Plant response rating, Soybean (soybean; [1]): 2
- Plant response rating, Soybean (soybean; [2]): 2
- Plant response rating, Soybean (soybean; [3]): 0
- Soybean plant response rating (0 to 10 scale) (soybean; Preemergence, Rate 125 g/ha): 0
- Soybean plant response rating (soybean; Preemergence, Rate 250 g/ha): 0
- Soybean plant response rating (soybean; Preemergence, Rate 500 g/ha): 0
- Soybean plant response rating (soybean; Rate 62 g/ha, Postemergence): 2
- Plant response rating, Soybean (soybean; [4]): 2
- Plant response rating, Cocklebur (cocklebur; [1]): 0
- Plant response rating, Cocklebur (cocklebur; [2]): 0
- Plant response rating, Cocklebur (cocklebur; [3]): 0
- Cocklebur plant response rating (0 to 10 scale) (cocklebur; Preemergence, Rate 125 g/ha): 0
- Cocklebur plant response rating (cocklebur; Preemergence, Rate 250 g/ha): 0
- Cocklebur plant response rating (cocklebur; Preemergence, Rate 500 g/ha): 0
- Cocklebur plant response rating (cocklebur; Rate 62 g/ha, Postemergence): 0
- Plant response rating, Cocklebur (cocklebur; [4]): 0
- Plant response rating, Corn (corn; [1]): 0
- Plant response rating, Corn (corn; [2]): 0
- Plant response rating, Corn (corn; [3]): 0
- Corn plant response rating (0 to 10 scale) (corn; Preemergence, Rate 125 g/ha): 0
- Corn plant response rating (corn; Preemergence, Rate 250 g/ha): 0
- Corn plant response rating (corn; Preemergence, Rate 500 g/ha): 0
- Corn plant response rating (corn; Rate 62 g/ha, Postemergence): 0
- Plant response rating, Corn (corn; [4]): 0
- Plant response rating, Crabgrass (crabgrass; [1]): 7
- Plant response rating, Crabgrass (crabgrass; [2]): 9
- Plant response rating, Crabgrass (crabgrass; [3]): 3
- Crabgrass plant response rating (0 to 10 scale) (crabgrass; Preemergence, Rate 125 g/ha): 9
- Crabgrass plant response rating (crabgrass; Preemergence, Rate 250 g/ha): 9
- Crabgrass plant response rating (crabgrass; Preemergence, Rate 500 g/ha): 10
- Crabgrass plant response rating (crabgrass; Rate 62 g/ha, Postemergence): 6
- Plant response rating, Crabgrass (crabgrass; [4]): 9
- Plant response rating, Morningglory (morningglory; [1]): 1
- Plant response rating, Morningglory (morningglory; [2]): 2
- Plant response rating, Morningglory (morningglory; [3]): 0
- Morningglory plant response rating (0 to 10 scale) (morningglory; Preemergence, Rate 125 g/ha): 0
- Morningglory plant response rating (morningglory; Preemergence, Rate 250 g/ha): 0
- Morningglory plant response rating (morningglory; Preemergence, Rate 500 g/ha): 2
- Morningglory plant response rating (morningglory; Rate 62 g/ha, Postemergence): 1
- Plant response rating, Morningglory (morningglory; [4]): 5
- Plant response rating, Giant foxtail (giant foxtail; [1]): 9
- Plant response rating, Giant foxtail (giant foxtail; [2]): 9
- Plant response rating, Giant foxtail (giant foxtail; [3]): 3
- Giant foxtail plant response rating (0 to 10 scale) (giant foxtail; Preemergence, Rate 125 g/ha): 10
- Giant foxtail plant response rating (giant foxtail; Preemergence, Rate 250 g/ha): 10
- Giant foxtail plant response rating (giant foxtail; Preemergence, Rate 500 g/ha): 10
- Giant foxtail plant response rating (giant foxtail; Rate 62 g/ha, Postemergence): 7
- Plant response rating, Giant foxtail (giant foxtail; [4]): 9
- Plant response rating, S. Flatsedge (0 to 10 scale, 0 is no effect, 10 is complete control) (smallflower flatsedge; [5]): 0
- S. Flatsedge plant response rating (0 to 10 scale, 0 is no effect, 10 is complete control) (smallflower flatsedge; [6]): 0
- S. Flatsedge plant response rating (smallflower flatsedge; [7]): 0
- S. Flatsedge plant response rating (smallflower flatsedge; [8]): 0
- Plant response rating, Wheat (wheat; [1]): 0
- Plant response rating, Wheat (wheat; [2]): 0
- Plant response rating, Wheat (wheat; [3]): 0
- Wheat plant response rating (0 to 10 scale) (wheat; Preemergence, Rate 125 g/ha): 0
- Wheat plant response rating (wheat; Preemergence, Rate 250 g/ha): 3
- Wheat plant response rating (wheat; Preemergence, Rate 500 g/ha): 8
- Wheat plant response rating (wheat; Rate 62 g/ha, Postemergence): 0
- Plant response rating, Wheat (wheat; [4]): 5
- Plant response rating, Rice (0 to 10 scale, 0 is no effect, 10 is complete control) (rice; [5]): 0
- Rice plant response rating (0 to 10 scale, 0 is no effect, 10 is complete control) (rice; [6]): 0
- Rice plant response rating (rice; [7]): 0
- Rice plant response rating (rice; [8]): 0
